In patent publication US7064112B1, “Pharmaceutical compositions comprising an adenosine receptor agonist or antagonist” (Can-Fite Biopharma Ltd., priority 1999, dated 2006):

How the values were obtained:
[1] = Weight of nude mice treated with 5-FU and/or Cl-IB-MECA; format: in vivo, nude mice (BALB/C origin); settings: FIG. 11; for weight of the mice as compared to control: day 7, 10 and 14, 5-FU 30 mg/kg i.p. five days, or Cl-IB-MECA 6 μg/kg oral every second day, alone
[2] = tested on: HCT-116 human colon cancer cells; assay: HCT-116 human colon carcinoma tumor growth in nude mice; format: in vivo; settings: for tumor growth (tumor size), combined therapy experiment: 5-FU 30 mg/kg i.p. 5 days, Cl-IB-MECA 5 μg/kg oral every other day, FIGS. 15 and 16
Description: Tumors were established by subcutaneous injection of 1×10^6 HCT-116 human colon cancer cells to nude mice (BALB/C origin) (Harlan, Jerusalem, Israel). […] Mice that were treated with the vehicle only (PBS). Each group consisted of 10 mice. Tumor growth rate was determined by measuring two orthogonal diameters of each tumor twice a week, and the tumor size was estimated according to the following formula: π/6[D1D2]. The results are depicted in FIG. 14. […] 1×10^6 HCT-116 cells were injected subcutaneously to nude mice. One day later, 5-FU (30 mg/kg body weight, in 0.2 ml PBS) was intraperitoneally injected and subsequently in 4 additional consecutive days. […] Mice that were treated either with the vehicle only (PBS) or with 5-FU served as control. Each group consisted of 10 mice. Tumor growth rate was determined by measuring two orthogonal diameters of each tumor twice a week, and the tumor size was estimated according to the following formula: π/6[D1D2].

[3] = tested on: Nb2-11C rat lymphoma cells; assay: Nb2-11C lymphoma cell growth, cell count assay; format: cell-based; settings: for growth inhibition of Nb2-11C lymphoma cells by receptor agonists: 0.01 μM agonist, 48 hours, FIG. 5A; for effect of receptor antagonist on the effect of adenosine on proliferation of Nb2-11C cells: 0.1 μM antagonist in combination with adenosine 25 μM, FIG. 5B
Description: Nb2-11C rat lymphoma cells (1.2×10^4 cells/ml) were incubated for 48 hours in 96 well microtiter plates with 1 ml RPMI medium containing 5% fetal bovine serum. Either 25 μM adenosine, 0.01 μM of an adenosine receptor agonists (CPA, an A1RAg; DPMA, an A2RAg or IB-MECA, an A3RAg) or 0.1 μM of an adenosine receptor antagonists (DPCPX, an A1RAn; DMPX, an A2RAn; or MRS-1220, an A3RAn) in combination with adenosine (25 μM) was added.
Cultures containing cells suspended in RPMI medium with 5% FBS served as controls for the above detailed experiment. Extent of cell proliferation was measured by a cell count assay.
Briefly, Nb2-11C lymphoma or bone marrow cells were incubated in the presence of either adenosine, or IB-MECA.

B-16 melanoma cells = assay: B-16 melanoma cell proliferation, [3H]-thymidine incorporation assay; format: cell-based, Murine; settings: FIG. 18
Description: B-16 melanoma cells (5×10^5 cells/ml) and bone marrow cells (3×10^6 cells/ml) were incubated in wells of 96 microtiter plate. The culture consisted of RPMI medium supplemented with 10% FTS: […] Cell proliferation was measured by the [^3H]-thymidine incorporation assay mentioned before.

bone marrow cells = assay: Bone marrow cell proliferation, [3H]-thymidine incorporation assay; format: cell-based, C57BL/6J or ICR mice; settings: for reduction of the increase in bone marrow cell proliferation as compared to adenosine alone: antagonist in combination with adenosine
Description: Bone marrow cells derived from the femur of C57BL/6J mice were used. The cells were prepared as previously described.
For this purpose, bone marrow cells obtained from the femur of C57BL/6J or ICR mice were first disaggregated by passing through a 25 G needle. Then, the cells (3×10^5 cells/well, in 96 microtiter plates) were incubated with RPMI medium containing 10% fetal bovine serum (FBS) in the presence of adenosine (25 μM). Adenosine or agonists to the A1 and A3 adenosine receptors—CPA (an A1RAg, 0.01 μM), CCPA (an A1RAg, 0.01 μM), or IB-MECA (an A3RAg, 0.01 μM), were added to the bone marrow cultures in the absence of adenosine; an A1 adenosine receptor antagonist, DPCPX (0.1 μM), was added to a bone marrow culture in the presence of adenosine (25 μM).
Cultures containing cells suspended in RPMI medium and 5% FBS served as the control for the above detailed experiment.
[^3H]-Thymidine incorporation assay was used to evaluate the proliferation of the bone marrow cells. For this purpose, after 30 hours of incubation, each well was pulsed with 1 μCi [^3H]-Thymidine. After a total of 48 hours of incubation, the cells were harvested and the [^3H]-Thymidine uptake was determined in an LKB liquid scintillation counter (LKB, Piscataway, N.J., USA).
Cell proliferation was evaluated as described above.
The cumulative effect on the proliferation of bone marrow cells, when using a combination of an A1RAgm1 A3RAg, (CPA and IB-MECA) was evaluated. Cells, after being disaggregated, were incubated in the presence of either adenosine (25 μM), CPA (0.01 μM), IB-MECA (0.01 μM) or a combination of IB-MECA and CPA (each in a concentration of 0.01 μM) and further treated as described above.
In order to compare the effect of adenosine receptor antagonist on the proliferation of bone marrow cells, following the same methodology described above, cells were incubated with adenosine alone or in combination with either DMPX (an A2RAn), DPCPX (an A1RAn), MRS-1220 (an A3RAn) or with a combination of DPCPX and MRS-1220.
Cells pre-treated as described above, were incubated at different concentrations of IB-MECA (1 μM, 0.1 μM or 0.01 μM).
Bone marrow cells (3×10^6 cell/ml) were incubated in wells of 96 microtiter plates. […] Cell proliferation was measured by [^3H]-thymidine incorporation assay.
B-16 melanoma cells (5×10^5 cells/ml) and bone marrow cells (3×10^6 cells/ml) were incubated in wells of 96 microtiter plate. […] Cell proliferation was measured by the [^3H]-thymidine incorporation assay mentioned before.
Murine bone marrow cells were cultured as described above. […] The antagonist was added at a concentration of 10 nM.

[4] = tested on: white blood cells and bone marrow nucleated cells; assay: Doxorubicin-induced myelotoxicity in ICR mice; format: in vivo; settings: doxorubicin 10 mg/kg i.p., Cl-IB-MECA 6 μg/kg oral at 24, 48, 72 hours
Description: ICR mice were treated with doxorubicin (injection of 10 mg/kg i.p. in 0.5 ml PBS). […] At 72 hours, 96 hours, 120 hours and 144 hours, the mice were sacrificed and blood samples were withdrawn. In addition, bone marrow cells were aspirated from the femur of the mice and a cell count of nucleated cells from this aspirated preparation was made, following staining of the preparation with Coomassie Blue.

[5] = tested on: peripheral blood leukocytes and neutrophils; settings: for total white blood cell count after cyclophosphamide: i.p. adenosine 25 μg/kg or IB-MECA 3 or 6 μg/kg at 48 and 72 hours, FIG. 10A
Description: A further experiment was conducted in order to evaluate the chemoprotective effect of A3RAg. Mice were treated with cyclophosphamide (50 mg/kg body weight in 0.3 ml PBS). After 48 and 72 hours from administration of the cytotoxic drug, the mice were injected i.p. with adenosine (25 μg/kg body weight) or with IB-MECA (3 or 6 μg/kg body weight in 0.2 ml PBS). The number of white blood cells (WBC) and neutrophils was tested.

white blood cells (WBC) = settings: CYP 50 mg/kg i.p.; blood 124 hours after chemotherapy; FIG. 13
Description: Each group consisted of 10 mice and the experiment was repeated twice.
The CYP was injected intraperitoneally in 0.2 ml of PBS which served as the carrier.
Anti-G-CSF antibodies were intravenously injected (in 0.2 ml PBS) 72 hours following the administration of the chemotherapeutic drugs.
Blood samples were withdrawn 124 hours following chemotherapy. White blood cells (WBC) counts were made in a Coulter counter and differential cell counts were carried on smear preparations stained with May-Grundvald-Giemsa solution.

Q: Which “weight of the mice as compared to control” value [1] does the source give for `O=c1[nH]cc(F)c(=O)[nH]1` [5-FU, 5-fluoro-uracyl, reference compound] here?
A: profound effect on the weight of the mice

Q: And the “tumor growth (tumor size), combined therapy experiment” value [2]?
A: marked inhibition of tumor growth

Q: For `OC[C@H]1O[C@@H](n2cnc3c(NC4CCCC4)ncnc32)[C@H](O)[C@@H]1O` [CPA, N-cyclopentyladenosine], which “growth inhibition of Nb2-11C lymphoma cells by receptor agonists” value [3] is on record?
A: No growth inhibition

Q: For `CNC(=O)[C@H]1O[C@@H](n2cnc3c(NCc4cccc(I)c4)nc(Cl)nc32)[C@H](O)[C@@H]1O` [Cl-IB-MECA], which 5-FU-induced weight loss ([1]; Cl-IB-MECA 6 μg/kg oral administered together with 5-FU 30 mg/kg i.p.) is on record?
A: prevented some of this weight loss

Q: And the “weight of the mice as compared to control” value [1]?
A: did essentially not give rise to any weight loss

Q: And the “tumor growth (tumor size), combined therapy experiment” value [2]?
A: marked inhibition of tumor growth

Q: And the “tumor growth (tumor size)” value ([2]; Cl-IB-MECA 6 μg/kg oral every other day, FIG. 14)?
A: marked inhibition of tumor growth

Q: And the “proliferation of B-16 melanoma cells” value (B-16 melanoma cells; Cl-IB-MECA 0.01 μM or 0.1 μM)?
A: inhibitory effect

Q: And the “effect on proliferation of bone marrow cells” value (bone marrow cells; 1 or 10 nM, FIG. 20)?
A: dose dependent

Q: What about the “proliferation of bone marrow cells” value (bone marrow cells; Cl-IB-MECA 0.01 μM or 0.1 μM, FIG. 18) of the same compound?
A: proliferation stimulation effect

Q: And the “number of peripheral white blood cells after doxorubicin” value ([4]; FIG. 12A)?
A: marked increase

Q: And the “number of bone marrow nucleated cells after doxorubicin” value ([4]; FIG. 12B)?
A: marked increase

Q: What about the “white blood cells and neutrophils after chemotherapy, experiment with Cl-IB-MECA” value ([5]; mouse, in vivo) of the same compound?
A: chemoprotective activity

Q: With `C#CCn1c(=O)c2c(ncn2C)n(C)c1=O` [DMPX, 3,7-dimethyl-1-propargyl-xantane, reference compound] as the compound, how does the “effect of receptor antagonist on the effect of adenosine on proliferation of Nb2-11C cells” value [3] read?
A: minor, however still significant effect

Q: And the “proliferation of bone marrow cells, adenosine in combination with receptor antagonist” value (bone marrow cells; compared to adenosine alone, FIG. 3B)?
A: increased proliferation of bone marrow cells which even exceeded that of adenosine alone

Q: Which results are given for `CCCn1c(=O)c2[nH]c(C3CCCC3)nc2n(CCC)c1=O` [DPCPX, 1,3-dipropyl-8-cyclopentylxanthine, reference compound]?
A: effect of receptor antagonist on the effect of adenosine on proliferation of Nb2-11C cells [3]: essentially no effect; reduction of the increase in bone marrow cell proliferation as compared to adenosine alone (bone marrow cells; FIG. 3B): about 50%

Q: With `COc1cc(OC)cc(C(CNc2ncnc3c2ncn3[C@@H]2O[C@H](CO)[C@@H](O)[C@H]2O)c2ccccc2C)c1` (stereo partly drawn) [DPMA, N^6-[2-(3,5-dimethoxyphenyl)-2-(2-methylphenyl)-ethyl] adenosine] as the compound, how does the “growth inhibition of Nb2-11C lymphoma cells by receptor agonists” value [3] read?
A: lower growth inhibition

Q: What does the source list for `CNC(=O)[C@H]1O[C@@H](n2cnc3c(NCc4cccc(I)c4)ncnc32)[C@H](O)[C@@H]1O` [IB-MECA, 1-deoxy-1-{6-[({3-iodophenyl}methyl)amino]-9H-purine-9-yl}-N-methyl-β-D-ribofuranuronamide]?
A: growth inhibition of Nb2-11C lymphoma cells by receptor agonists [3]: markedly inhibited; effect on growth of tumor cells (Nb2-11C lymphoma) ([3]; FIG. 7A): inhibiting the growth of tumor cells; effect on proliferation of bone marrow cells (bone marrow cells; 1 or 10 nM, FIG. 20): dose dependent; effect on proliferation of bone marrow cells (bone marrow cells; FIG. 7B): stimulating the proliferation of bone marrow cells; stimulation of bone marrow cell proliferation (bone marrow cells; IB-MECA 1 μM, 0.1 μM or 0.01 μM): stimulates proliferation of bone marrow in a dose dependent manner; complete recovery of total white blood cell count after ([5]; cyclophosphamide 50 mg/kg, IB-MECA i.p. at 48 and 72 hours): 168 h; total white blood cell count after cyclophosphamide ([5]; cyclophosphamide 50 mg/kg): restored

Q: Which results are given for `O=C(Cc1ccccc1)Nc1nc2ccc(Cl)cc2c2nc(-c3ccco3)nn12` [MRS-1220, 9-chloro-2-(2-furanyl)-5-[(phenylacetyl)amino] [1,2,4,]-triazolo[1,5-c]quinazoline]?
A: effect of receptor antagonist on the effect of adenosine on proliferation of Nb2-11C cells [3]: substantially abolished; therapeutic effect of A3RAg (IB-MECA) when A3 receptor antagonist employed ([3]; FIGS. 7A–7B, tumor and normal cells): reversed; reduction of the increase in bone marrow cell proliferation as compared to adenosine alone (bone marrow cells; FIG. 3B): about 50%

Q: Which results are given for `CCCOC(=O)c1c(-c2ccccc2)nc(CC)c(C(=O)SCC)c1CCC` [MRS-1523, reference compound]?
A: proliferation of B-16 melanoma cells in the presence of MRS-1523 (B-16 melanoma cells; with Cl-IB-MECA 0.01 μM or 0.1 μM): unchanged versus control; proliferation of bone marrow cells in the presence of MRS-1523 (bone marrow cells; with Cl-IB-MECA 0.01 μM or 0.1 μM, FIG. 18): unchanged versus control

Q: Which “total white blood cell count after cyclophosphamide” value ([5]; cyclophosphamide 50 mg/kg) does the source give for `Nc1ncnc2c1ncn2[C@@H]1O[C@H](CO)[C@@H](O)[C@H]1O` [adenosine] here?
A: restored

Q: With `O=P1(N(CCCl)CCCl)NCCCO1` (stereo not drawn) [cyclophosphamide, Cyclophosphamide, reference compound] as the compound, how does the “number of peripheral blood WBC, cyclophosphamide only” value (white blood cells (WBC)) read?
A: decline in the number of peripheral blood WBC

Q: What about the “number of peripheral blood leukocytes and neutrophils, cytotoxic drug only” value ([5]; cyclophosphamide 50 mg/kg only) of the same compound?
A: decline in the number of peripheral blood leukocytes and neutrophils
